Where two headings read alike, the source gives them in different places. Blank lines part the entries; values can stand above or below the molecule they belong to. Where a SMILES comes first, the peptide text is derived from it.
Assays:
[1] = stability testing in intestinal perfusate; format: in vitro ADME; settings: rat, 37° C.; for half-life: intestinal perfusate
Experimental: (§1) Stability testing of the various compounds was performed in buffer, intestinal perfusate, and an intestinal homogenate preparation to assess the potential oral availability of these compounds. Initial studies prepared the tissue for stability studies. The buffer used in stability testing is 10 mM MES (pH 6.5) containing 135 mM NaCl, and 5 mM KCl. To collect intestinal perfusate from rats, male Sprague Dawley rats, 8 to 10 weeks old, weighing 250 to 350 g were fasted 15 to 18 hours with water given ad libitum. Anesthesia was administered by intramuscular injection of pentobarbital/ketamine (40 mg/kg and 80 mg/kg, respectively). The rats were placed on a warming pad under a surgical lamp to maintain body temperature and jejunal intestinal segments were exposed through a midline, abdominal incision. Approximately 20 cm segment of the jejunum (2 to 4 cm distal to the ligament of Treitz) was cannulated and the intestinal segments were perfused with 10 mM MES (pH 6.5) containing 135 mM NaCl, and 5 mM KCl at a flow-rate of 0.5 ml/min at 37° C. using a constant infusion pump (Harvard Apparatus, South Natick, Mass.). The collected perfusate was stored at −80° C. until use for ex vivo stability studies. After collection, the perfused intestinal segments were flushed with ice-cold 0.15 M KCl solution and the animal was euthanized and the jejunal intestinal segment detached. The inner intestinal tissue layers are scraped out and homogenized in MES buffer (pH 6.5) in a ratio of 1 part of intestinal tissue to 5 parts buffer. Total protein content of the perfusate and the homogenate were determined using a Biorad protein assay kit. The intestinal homogenate samples were used immediately or rapidly frozen at −80° C. until stability analysis.
(§2) The actual stability testing protocol is as follows: A 0.1 ml aliquot of the synthetic peptide solution (1 mg/ml) was added to 0.9 ml of MES buffer, pH 6.5, intestinal perfusate, or intestinal homogenate at 37° C. Samples were mixed by vortexing and 100 microliter aliquots were removed over a 60 to 90 minute period for analysis of breakdown products. The 100 microliter sample aliquots were diluted 10 fold with water and subjected to solid phase extraction using a Waters Oasis HLB column. Briefly, the columns were preconditioned by passing 1 ml of MeOH and 1 ml of water over the column, and 1 ml of sample was added to the column. The column was washed with 5% methanol:95% water solution to remove proteins and salts, then eluted with 1 ml of 100% methanol. The methanol was removed by vacuum, and the sample was reconstituted in mobile phase for LC/MS/MS analysis.
(§3) LC/MS/MS analysis was performed on a HP1100 HPLC (Hewlett Packard) interfaced with a Quattro II MS/MS detector (Waters/Micromass). For the HPLC separation, a 10 μL aliquot of sample in a mobile phase consisting of an equal volume mixture of acetonitrile/water containing 0.5% formic acid was injected onto a 150 mm×2.2 mm, 5 μm C8 column (Higgins Analytical Inc) and developed at a flow rate of 0.2 ml/min for 5 minutes. The MS detector was used in single ion recording mode at a cone voltage of 50 Volts.

[2] = rat intestinal in situ perfusion permeability; format: in vivo; settings: rat
Experimental: To determine the intestinal permeability of the various peptide analogs, male albino Sprague-Dawley rats, 9-10 weeks old and weighing 250-350 g were fasted for 18 hours with free access to water. The rats were anesthetized with an intramuscular injection of ketamine/xylazine/butorphanol (87 mg/kg, 6 mg/kg, and 0.2 mg/kg body weight, respectively). The abdomen was opened by a 4-5 cm midline incision and a 10 cm jejunal segment was cannulated on two ends and connected to a syringe pump that pumps the perfusing solution through the cannulated intestine at a constant rate and at a temperature of 37° C. The isolated segment was rinsed with 10 mM MES (pH 6.5) at a flow-rate of 0.5 ml/min in order to clean out any residual debris. Jejunal perfusion was subsequently performed with the same buffer containing 135 mM NaCl, 5 mM KCl and 0.01% PEG 4000 at a flow rate of 0.2 ml/min containing test compound, internal permeability reference standards (e.g., metoprolol) and ^14C-PEG 4000 as a non-absorbable marker for measuring water flux. After steady-state is reached within the perfused intestinal segment, typically 30 minutes after start of perfusion, samples were taken at 10 minute intervals for 1 hour. ^14C (PEG-4000) levels are assayed by scintillation counting and test compounds and internal permeability standard analysis by LC/MS/MS. Samples are frozen and stored at −80° C. until analysis.
The effective permeability (Peff) determined from the in situ perfusion is calculated from equation 1
[formula] where Q is the perfusion buffer flow rate, C′out is the outlet concentration of the compound that has been adjusted for water transport (equation 2) after passing through the intestinal segment, C′in is the inlet or starting concentration of the compound, R is the radius of the intestinal segment (set to 0.2 cm) and L is the length of the intestinal segment. To correct for water transport, a non-absorbed radioactive tracer, ^14C PEG-4000, is included in the perfusion buffer. The Cout/Cin ratio is corrected for water transport according to equation 2:
[formula] where Aout-A0 is equal to the radioactivity counts in the outlet sample minus background (dpm) and Ain-A0 is equal to the radioactivity counts in the inlet sample minus background (dpm).
In certain instances, in addition to perfusing the intestinal segment as described, plasma is drawn through a portal vein cannula to determine the amount of material entering the portal system during the perfusion. This additional experimental step can aid in determining the true intestinal permeability of unstable compounds. After steady state conditions are reached as described above, 0.5 ml aliquots of plasma are withdrawn from the portal vein at regular intervals throughout the experimental time frame. The plasma samples are deproteinated with acetonitrile and the sample is subjected to SPE and LC/MS analysis as described above. From the plasma concentration of compound, the mesenteric permeability can be determined by substitution into equation 3: Flux=A*Pe-mes*Ci 3) where Flux is equal to the portal blood flow (estimated at 1 ml/min in the rat)×the steady state mesenteric blood concentration of the peptide analogs, A is the absorptive area of the intestine (estimated at 12.56 cm^2 in the rat intestine), Pe-mes is the mesenteric Permeability (cm/sec), and Ci is the starting concentration of drug in the perfusate (ug/ml).

[3] = stability testing in intestinal homogenate; format: in vitro ADME; settings: rat
Experimental: as §1, §2, §3

[4] = read-out: t1/2 (min) Intestinal Perfusate

half-life [1, 4]: 205 min
Compound: N=C(N)NCCC[C@@H](N)C(=O)N1[C@H](C(=O)N2C[C@H](O)C[C@H]2C(=O)NCC(=O)N[C@H](C(N)=O)C2Cc3ccccc3C2)C[C@@H]2CCCC[C@@H]21 [rOicHypGIdg] (HELM PEPTIDE1{[dR].[O=C([C@@H]1C[C@@H]2CCCC[C@@H]2N1[*:1])[*:2]].[Hyp].G.[O=C([C@@H](N[*:1])C1Cc2ccccc2C1)[*:2]].[am]}$$$$V2.0)

half-life [1, 4]: 56.1 min
Compound: N=C(N)NCCC[C@@H](N)C(=O)N1[C@H](C(=O)N2CCC[C@H]2C(=O)NCC(=O)N[C@H](C(N)=O)C2Cc3ccccc3C2)C[C@@H]2CCCC[C@@H]21 [rOicPGIdg] (HELM PEPTIDE1{[dR].[O=C([C@@H]1C[C@@H]2CCCC[C@@H]2N1[*:1])[*:2]].P.G.[O=C([C@@H](N[*:1])C1Cc2ccccc2C1)[*:2]].[am]}$$$$V2.0)

half-life at 0.1 mg/ml ([1]; male, Sprague Dawley, intestinal (jejunal) perfusate, pH 6.5, rat, read-out: t1/2 (min) Intestinal Perfusate): 91.8 min
Compound: N=C(N)NCCC[C@H](N)C(=O)N1CCC[C@H]1C(=O)N1CCC[C@H]1C(=O)O [RPP, Arg-Pro-Pro, reference compound] (H-Arg-Pro-Pro-OH; C-terminus assumed)

Papp ([2]; from portal vein plasma during perfusion, read-out: Permeability (mesenteric)): 1.63 ×10⁻⁶ cm/s
Papp ([2]; rat jejunal in situ perfusion, read-out: Permeability (in situ)): 7.6 ×10⁻⁶ cm/s
half-life ([3]; intestinal homogenate, 37° C., read-out: t1/2 (min) Intestinal Homogenate): 935 min
stability in intestinal homogenate (FIG. 12) [3]: most stable
t1/2 (min) Intestinal Perfusate [1]: stable
Compound: N=C(N)NCCC[C@@H](N)C(=O)N1[C@H](C(=O)N2CCC[C@H]2C(=O)O)C[C@@H]2CCCC[C@@H]21 [rOicP] (HELM PEPTIDE1{[dR].[O=C([C@@H]1C[C@@H]2CCCC[C@@H]2N1[*:1])[*:2]].P}$$$$V2.0)
